Earlier results in patent US8153109B2, “Alkylene carbonate dilution, alkylene carbonate for preparing the dilution, and aqueous reducing chemical agent” (San-Ei Kagaku Co., Ltd., priority 2006, dated 2012).

Details: test day 10, emulsified chemical agent, in some cases

Compound: O=C1OCCC1S (stereo not shown) [2-mercapto-4-butyrolactone]
- percent decomposition of 2-mercapto-4-butyrolactone: about 30%
